# Test results taken from article PMC11876276, “LC–MS/MS quantification of bacterial and fungal signal peptides via direct injection: a case study of cross-kingdom communication” (Analytical and Bioanalytical Chemistry, 2025).
# Experiment: Peptide stability in fresh culture media (W0, MV, EMM)
# Assay type: physicochemical
# Experimental: Stability of the peptides was analyzed in freshly prepared media and in the supernatant from yeast cultivations in W0 and MV media. For this purpose, the yeast cultivations were initiated in 10 mL media with an optical density (OD600nm) of 1 and were cultivated for 24 h at 30 °C with continuous shaking. Subsequently, 2 mL of the culture was sampled and centrifuged at 5000 × g for 5 min. The resulting supernatant was removed and stored at -20 °C until LC–MS analysis. To study the time-dependent peptide stability, yeast supernatant and fresh culture medium with a volume of 900 µL each were spiked with 100 µL of a synthetic peptide mixture containing 10 µM of each α-factor and CSF in HPLC-grade water with 0.125% FA. The samples were analyzed immediately after sampling and subsequently over seven 3h intervals, in order to determine the remaining peptide concentrations. […]
# The stability of the peptides also depends on their rate of enzymatic conversation through the action of proteases or peptidases (see review) secreted by cells during the cultivation. Therefore, the concentration of a peptide mixture (containing both α-factor and CSF) was monitored over a period of at least 18 h in the presence of fresh culture media or the supernatant of cultured yeast cells (harvested after 24 h). […]
Substance,"Peptide stability in EMM media (typical EMM media used for S. pombe, without and with 50 % ACN, LC-MS/MS, Fig. S7)","Concentration over 18 h in fresh culture media (fresh W0 pH = 5.6 or MV pH = 6.5, 1 µM peptide, glass vessels, 3 h intervals, LC-MS/MS normalized peak area, Fig. S5)"
"TYADFL RAYQSW NTFVNP DRPNL [P-factor, pheromone from S. pombe, obtained from Davids Biotechnologie]",demonstrated,–
"WHWLQLKPQPMY [α-factor, signal peptide (pheromone) from S. cerevisiae, ordered from UMEX GmbH]",–,remained nearly constant
